Reference: patent US6362369B1, “Phthalic acid diamide derivatives fluorine-containing aniline compounds as starting material, agricultural and horticultural insecticides, and a method for application of the insecticides” (Nihon Nohyaku Co., Ltd., priority 1997, dated 2002)

How the values were obtained:
Type in all cases: in vivo
[1] = tested on: diamondback moth (Plutella xylostella); experiment: Insecticidal effect on diamondback moth (Test Example 1); settings: mortality judged according to the criterion shown in Test Example 1
Summary of the method: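 Triplicate groups of 10 insects were scored: six days after immersion of oviposited Chinese cabbage seedlings and holding at 25 °C post air-drying, hatched larvae were counted. Mortality derived from these counts and insecticidal effect judged by a set criterion.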

[2] = tested on: common cutworm (Spodoptera Litura); experiment: Insecticidal effect on common cutworm (Test Example 2); settings: 500 ppm, cabbage leaf dip, second-instar larvae, eight days after inoculation, 25° C.
Summary of the method: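 Insecticidal effect was rated from percent mortality of second-instar larvae exposed to air-dried treatment at 25° C for 8 days.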

[3] = tested on: rice leafroller (Cnaphalocrocis medinalis); experiment: Insecticidal effect on rice leafroller (Test Example 3); settings: 500 ppm, rice lamina dip, third-instar larvae, four days after inoculation, 25° C., humidity 70%
Summary of the method: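 Insecticidal effect is judged by a predefined criterion from dead/alive counts four days after infesting air-dried lamina with third-instar larvae, kept on moistened filter paper at 25° C, 70% humidity.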

Row | Structure (SMILES) | Insecticidal effect on diamondback moth (Test Example 1), judged grade [1] | Insecticidal effect on common cutworm (Test Example 2), judged grade [2] | Insecticidal effect on rice leafroller (Test Example 3), judged grade [3]
1 | COc1cccc(C(=O)Nc2ccc(OC(F)(F)F)cc2)c1C(=O)NC(C)C [compound 767] | A (100) | C (89-80) | A (100)
2 | COc1cccc(C(=O)Nc2ccc(Br)cc2C)c1C(=O)NC(C)C [compound 768] | A (100) | B (99-90) | A (100)
3 | COc1cccc(C(=O)NC(C)C)c1C(=O)Nc1cc(Cl)ccc1C [compound 770] | A (100) | A (100) | A (100)
4 | CSc1cccc(C(=O)Nc2cccc(Cl)c2C)c1C(=O)NC(C)C [compound 780] | A (100) | A (100) | A (100)
5 | CSc1cccc(C(=O)Nc2ccc(Cl)cc2C)c1C(=O)NC(C)C [compound 781] | A (100) | A (100) | A (100)
6 | CSc1cccc(C(=O)Nc2ccc(OC(F)F)cc2C)c1C(=O)NC(C)C [compound 783] | A (100) | A (100) | A (100)
7 | Cc1cc(OC(F)F)ccc1NC(=O)c1cccc(S(C)(=O)=O)c1C(=O)NC(C)C [compound 795] | A (100) | B (99-90) | A (100)
8 | C#Cc1cccc(C(=O)NC(C)C)c1C(=O)Nc1ccc(Cl)cc1C [compound 801] | A (100) | A (100) | D (79-50)
9 | Cc1cc(OC(F)F)ccc1NC(=O)c1ccc2ccccc2c1C(=O)NC(C)C [compound 819] | A (100) | B (99-90) | A (100)
10 | CCC(C)NC(=O)c1c(C(=O)Nc2cc(Cl)ccc2C)cccc1[N+](=O)[O-] (stereo not drawn) [compound 838] | A (100) | C (89-80) | A (100)
11 | Cc1ccc(Cl)cc1NC(=O)c1cccc([N+](=O)[O-])c1C(=O)NC(C)(C)C [compound 842] | A (100) | A (100) | D (79-50)
12 | Cc1cc(OC(F)F)ccc1NC(=O)c1cccc(Cl)c1C(=O)NC1CC1 [compound 849] | A (100) | B (99-90) | A (100)
13 | Cc1ccc(Cl)cc1NC(=O)c1cccc([N+](=O)[O-])c1C(=O)NC1CC1 [compound 851] | A (100) | D (79-50) | A (100)
14 | Cc1ccc(F)cc1NC(=O)c1cccc([N+](=O)[O-])c1C(=O)NCCF [compound 862] | A (100) | D (79-50) | D (79-50)
15 | COCC(C)NC(=O)c1c(C(=O)Nc2ccc(OC(F)F)cc2C)cccc1[N+](=O)[O-] (stereo not drawn) [compound 874] | A (100) | C (89-80) | A (100)
16 | CC(C)NC(=O)c1c(C(=O)Nc2ccc(C(F)(F)C(F)(F)F)cc2)cccc1[N+](=O)[O-] [compound 890] | A (100) | A (100) | A (100)
17 | CC(C)NC(=O)c1c(F)cccc1C(=O)Nc1ccc(C(F)(F)C(F)(F)F)cc1 [compound 891] | A (100) | A (100) | A (100)
18 | CC(C)NC(=O)c1c(Cl)cccc1C(=O)Nc1ccc(C(F)(F)C(F)(F)F)cc1 [compound 893] | A (100) | A (100) | A (100)

Row | Structure (SMILES) | Insecticidal effect on diamondback moth (Test Example 1), judged grade [1] | Insecticidal effect on common cutworm (Test Example 2), judged grade [2] | Insecticidal effect on rice leafroller (Test Example 3), judged grade [3]
19 | CC(C)NC(=O)c1cccc(Cl)c1C(=O)Nc1ccc(C(F)(F)C(F)(F)F)cc1 [compound 894] | A (100) | A (100) | A (100)
20 | CC(C)NC(=O)c1c(I)cccc1C(=O)Nc1ccc(C(F)(F)C(F)(F)F)cc1 [compound 895] | A (100) | A (100) | A (100)
21 | CC(C)NC(=O)c1c(F)cccc1C(=O)Nc1ccc(Oc2ccc(C(F)(F)F)cc2Cl)cc1F [compound 901] | A (100) | D (79-50) | A (100)
22 | CC(C)NC(=O)c1c(Cl)cccc1C(=O)Nc1ccc(Oc2ccc(C(F)(F)F)cc2Cl)cc1F [compound 903] | A (100) | A (100) | A (100)
23 | Cc1cc(SC(F)(F)C(F)(F)F)ccc1NC(=O)c1cccc(F)c1C(=O)NC(C)C [compound 905] | A (100) | A (100) | A (100)
24 | Cc1cc(SC(F)(F)C(F)(F)F)ccc1NC(=O)c1c(F)cccc1C(=O)NC(C)C [compound 906] | A (100) | D (79-50) | A (100)
25 | Cc1cc(SC(F)(F)C(F)(F)F)ccc1NC(=O)c1cccc(Cl)c1C(=O)NC(C)C [compound 907] | A (100) | A (100) | A (100)
26 | Cc1cc(SC(F)(F)C(F)(F)F)ccc1NC(=O)c1c(Cl)cccc1C(=O)NC(C)C [compound 908] | A (100) | D (79-50) | A (100)
27 | Cc1cc(SC(F)(F)C(F)(F)F)ccc1NC(=O)c1cccc(I)c1C(=O)NC(C)C [compound 909] | A (100) | A (100) | A (100)
28 | CC(C)NC(=O)c1c(Cl)cccc1C(=O)Nc1ccc(C=C(Cl)Cl)cc1 [compound 915] | A (100) | A (100) | A (100)
29 | CC(C)NC(=O)c1c(I)cccc1C(=O)Nc1ccc(C=C(Cl)C(F)(F)F)cc1 [compound 917] | A (100) | A (100) | A (100)
30 | Cc1cc(Cl)ccc1NC(=O)c1ccccc1C(=O)NC(C)(C)C [compound 927] | A (100) | A (100) | A (100)
31 | CC(C)(C)NC(=O)c1ccccc1C(=O)Nc1ccc(OC(F)(F)F)cc1 [compound 929] | A (100) | A (100) | A (100)
32 | Cc1cc(OC(F)(F)F)ccc1NC(=O)c1ccccc1C(=O)NC(C)(C)C [compound 930] | A (100) | A (100) | A (100)
33 | Cc1cc(C(F)(F)C(F)(F)F)ccc1NC(=O)c1ccccc1C(=O)NC(C)(C)C [compound 931] | A (100) | A (100) | A (100)
34 | Cc1cc(C(F)(F)C(F)(F)F)ccc1NC(=O)c1cccc(Cl)c1C(=O)NC(C)(C)C [compound 932] | A (100) | A (100) | A (100)
35 | CC(C)(C)NC(=O)c1c(Cl)cccc1C(=O)Nc1ccc(C(F)(F)F)cc1 [compound 934] | A (100) | A (100) | A (100)
